Laboratory results published in the supplement of paper PMC11208160.

assay: recombinant UMI read abundance after kanamycin selection (control-corrected) (log10(CPM+1)); higher = more efficient recombination; extreme values may be limits of the assay; sequences stand for … in AGTGCAGAGAAAATCGGCCAGTTTTCTCTGCCTGCAGTCCGCATGCCGTGGGACCCCTTGGGTTCTAACCTGTTGCCTAGATTTATGCAGCGGACTGCCTTTCTCCCAAAGTGATAAACCGG…AGGTTGGTTTCACT; site = the 11-nt donor
Outline: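 In a pooled Escherichia coli screen for the IS621 bridge recombinase, donor and donor-binding-loop pairs were each placed with a 12-nt UMI on a plasmid bearing a promoterless kanamycin gene. This library was co-electroporated with a target plasmid encoding a fixed target and T7-inducible recombinase, and cells were plated either on IPTG (0.07 mM) plus kanamycin or without selection, in two replicates each. Recombinant UMIs were PCR-amplified across the donor–target junction and sequenced, and counts were converted to CPM, averaged over replicates, scaled by control-derived factors and reported as log10(CPM+1).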
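Also: IS621 bridge recombinase in Escherichia coli cells against a fixed T5 target plasmid.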

“ACTTCTACATGGACCGGTTTTCCCGGTAATCCGTATTTGTG (site ACCTCTACTCA)” and “ACTTCTACATGGACCGGTTTTCCCGGTAATCCGTATTTGTG (site ACGTCTACTCA)” are within 0.2 log units of each other in “recombinant UMI read abundance (log10)” value: 0.00536 for the first, 0.0444 for the second.

Compared with “ACTTCTACATGGACCGGTTTTCCCGGTAATCCGTATTTGTG (site ACTTCTACTCA)”, “ACTTGTGCATGGACCGGTTTTCCCGGTAATCCGTATTTGGT (site ACTAGTGCTAC)” is higher in “recombinant UMI read abundance (log10)” value: 0.179 for the first, 0.652 for the second.

Compared with “ACTTGTGCATGGACCGGTTTTCCCGGTAATCCGTATTTGGT (site ACTCGTGCTAC)”, “ACTTGTGCATGGACCGGTTTTCCCGGTAATCCGTATTTGGT (site ACTGGTGCTAC)” is lower in “recombinant UMI read abundance (log10)” value: 0.73 for the first, 0.211 for the second.

First: ACTTGTGCATGGACCGGTTTTCCCGGTAATCCGTATTTGGT (site ACTTGTGCTAC)
Second: ACTTTACCATGGACCGGTTTTCCCGGTAATCCGTATTTGCT (site ACTTTACCTAG)
The “recombinant UMI read abundance (log10)” value of the first is higher: 1.18 for the first, 0.431 for the second.

First: ACTTTATCATGGACCGGTTTTCCCGGTAATCCGTATTTGCA (site ACAGTATCTTG)
Second: ACTTTATCATGGACCGGTTTTCCCGGTAATCCGTATTTGCA (site ACTTTATCTTG)
The “recombinant UMI read abundance (log10)” value of the first is higher: 2.35 for the first, 1.85 for the second.

First: AGAAACACATGGACCGGTTTTCCCGGTAATCCGTATTTGTC (site AGAAACACTGA)
Second: AGAAAGACATGGACCGGTTTTCCCGGTAATCCGTATTTGCT (site AGAAAGACTAG)
The “recombinant UMI read abundance (log10)” value of the first is higher: 2.8 for the first, 2.1 for the second.

“AGAAAGACATGGACCGGTTTTCCCGGTAATCCGTATTTGCT (site AGAAAGCCTAG)” and “AGAAAGACATGGACCGGTTTTCCCGGTAATCCGTATTTGCT (site AGAAAGGCTAG)” are within 0.2 log units of each other in “recombinant UMI read abundance (log10)” value: 0.934 for the first, 1.02 for the second.

First: AGAAAGACATGGACCGGTTTTCCCGGTAATCCGTATTTGCT (site AGAAAGTCTAG)
Second: AGAAAGGCATGGACCGGTTTTCCCGGTAATCCGTATTTGCA (site AGAAAGGCTAG)
The “recombinant UMI read abundance (log10)” value of the first is higher: 0.572 for the first, 0 for the second.

Going from “AGAAAGGCATGGACCGGTTTTCCCGGTAATCCGTATTTGCA (site AGAAAGGCTCG)” to “AGAAAGGCATGGACCGGTTTTCCCGGTAATCCGTATTTGCA (site AGAAAGGCTGG)”, the “recombinant UMI read abundance (log10)” value falls from 0.889 to 0.

Going from “AGAAAGGCATGGACCGGTTTTCCCGGTAATCCGTATTTGCA (site AGAAAGGCTTG)” to “AGAAATGCATGGACCGGTTTTCCCGGTAATCCGTATTTGCT (site AGAAAAGCTAG)”, the “recombinant UMI read abundance (log10)” value falls from 1.9 to 1.53.

Going from “AGAAATGCATGGACCGGTTTTCCCGGTAATCCGTATTTGCT (site AGAAACGCTAG)” to “AGAAATGCATGGACCGGTTTTCCCGGTAATCCGTATTTGCT (site AGAAAGGCTAG)”, the “recombinant UMI read abundance (log10)” value falls from 1.8 to 0.

First: AGAAATGCATGGACCGGTTTTCCCGGTAATCCGTATTTGCT (site AGAAATGCTAG)
Second: AGAAATTCATGGACCGGTTTTCCCGGTAATCCGTATTTGCG (site AGAAATTCTCG)
The “recombinant UMI read abundance (log10)” value of the first is higher: 2.23 for the first, 1.94 for the second.

Going from “AGAACCGCATGGACCGGTTTTCCCGGTAATCCGTATTTGAC (site AGAACCGCTGT)” to “AGAACGGCATGGACCGGTTTTCCCGGTAATCCGTATTTGCG (site AGAACGGCTCG)”, the “recombinant UMI read abundance (log10)” value falls from 2.35 to 1.75.

Compared with “AGAACTACATGGACCGGTTTTCCCGGTAATCCGTATTTGGG (site AGAACTACTCC)”, “AGAAGCACATGGACCGGTTTTCCCGGTAATCCGTATTTGTC (site AGAAGCACTGA)” is higher in “recombinant UMI read abundance (log10)” value: 0.434 for the first, 3.13 for the second.

Going from “AGAAGCCCATGGACCGGTTTTCCCGGTAATCCGTATTTGTC (site AGAAGCCCTGA)” to “AGAAGGCCATGGACCGGTTTTCCCGGTAATCCGTATTTGAC (site AAAAGGCCTGT)”, the “recombinant UMI read abundance (log10)” value falls from 1.43 to 0.

“AGAAGGCCATGGACCGGTTTTCCCGGTAATCCGTATTTGAC (site ACAAGGCCTGT)” and “AGAAGGCCATGGACCGGTTTTCCCGGTAATCCGTATTTGAC (site AGAAGGCCTGT)” are the same in “recombinant UMI read abundance (log10)” value: 0 for the first, 0 for the second.

First: AGAAGGCCATGGACCGGTTTTCCCGGTAATCCGTATTTGAC (site ATAAGGCCTGT)
Second: AGAATGGCATGGACCGGTTTTCCCGGTAATCCGTATTTGCT (site AGAAAGGCTAG)
The “recombinant UMI read abundance (log10)” value of the first is lower: 0 for the first, 1.89 for the second.

Going from “AGAATGGCATGGACCGGTTTTCCCGGTAATCCGTATTTGCT (site AGAACGGCTAG)” to “AGAATGGCATGGACCGGTTTTCCCGGTAATCCGTATTTGCT (site AGAAGGGCTAG)”, the “recombinant UMI read abundance (log10)” value falls from 1.47 to 0.34.

Compared with “AGAATGGCATGGACCGGTTTTCCCGGTAATCCGTATTTGCT (site AGAATGGCTAG)”, “AGACAGGCATGGACCGGTTTTCCCGGTAATCCGTATTTGCT (site AGAAAGGCTAG)” is lower in “recombinant UMI read abundance (log10)” value: 2.19 for the first, 0 for the second.

Compared with “AGACAGGCATGGACCGGTTTTCCCGGTAATCCGTATTTGCT (site AGACAGGCTAG)”, “AGACAGGCATGGACCGGTTTTCCCGGTAATCCGTATTTGCT (site AGAGAGGCTAG)” is lower in “recombinant UMI read abundance (log10)” value: 2.44 for the first, 0 for the second.

Compared with “AGACAGGCATGGACCGGTTTTCCCGGTAATCCGTATTTGCT (site AGATAGGCTAG)”, “AGACTTGCATGGACCGGTTTTCCCGGTAATCCGTATTTGCA (site AGACTTGCTTG)” is lower in “recombinant UMI read abundance (log10)” value: 0.555 for the first, 0 for the second.

“AGACTTTCATGGACCGGTTTTCCCGGTAATCCGTATTTGAC (site AGACTTTCTGT)” and “AGACTTTCATGGACCGGTTTTCCCGGTAATCCGTATTTGAC (site AGCCTTTCTGT)” are the same in “recombinant UMI read abundance (log10)” value: 0 for the first, 0 for the second.

Compared with “AGACTTTCATGGACCGGTTTTCCCGGTAATCCGTATTTGAC (site AGGCTTTCTGT)”, “AGACTTTCATGGACCGGTTTTCCCGGTAATCCGTATTTGAC (site AGTCTTTCTGT)” is lower in “recombinant UMI read abundance (log10)” value: 0.503 for the first, 0 for the second.

Compared with “AGAGCATCATGGACCGGTTTTCCCGGTAATCCGTATTTGAA (site AGAGCATCTTT)”, “AGAGCCCCATGGACCGGTTTTCCCGGTAATCCGTATTTGCA (site AGAGCCCCTTG)” is lower in “recombinant UMI read abundance (log10)” value: 2.33 for the first, 1.71 for the second.

“AGAGGACCATGGACCGGTTTTCCCGGTAATCCGTATTTGGG (site AGAGGACCTCC)” and “AGAGGACCATGGACCGGTTTTCCCGGTAATCCGTATTTGGG (site CGAGGACCTCC)” are within 0.2 log units of each other in “recombinant UMI read abundance (log10)” value: 0.0119 for the first, 0.0261 for the second.

“AGAGGACCATGGACCGGTTTTCCCGGTAATCCGTATTTGGG (site GGAGGACCTCC)” and “AGAGGACCATGGACCGGTTTTCCCGGTAATCCGTATTTGGG (site TGAGGACCTCC)” are within 0.2 log units of each other in “recombinant UMI read abundance (log10)” value: 0.0142 for the first, 0.0116 for the second.

Going from “AGAGTATCATGGACCGGTTTTCCCGGTAATCCGTATTTGTG (site AGAGTATCTCA)” to “AGATAATCATGGACCGGTTTTCCCGGTAATCCGTATTTGTC (site AGATAATCTGA)”, the “recombinant UMI read abundance (log10)” value falls from 2.98 to 2.16.

Going from “AGATAGGCATGGACCGGTTTTCCCGGTAATCCGTATTTGCA (site AGATAGGCTTG)” to “AGATCATCATGGACCGGTTTTCCCGGTAATCCGTATTTGTT (site AGATCATCTAA)”, the “recombinant UMI read abundance (log10)” value falls from 2.72 to 0.929.

Compared with “AGATCATCATGGACCGGTTTTCCCGGTAATCCGTATTTGTT (site CGATCATCTAG)”, “AGATCCGCATGGACCGGTTTTCCCGGTAATCCGTATTTGGT (site AGATCCGCTAC)” is higher in “recombinant UMI read abundance (log10)” value: 0 for the first, 0.811 for the second.

Going from “AGATGGCCATGGACCGGTTTTCCCGGTAATCCGTATTTGTG (site AGATGGCCTCA)” to “AGATTATCATGGACCGGTTTTCCCGGTAATCCGTATTTGCA (site ACAGTATCTTG)”, the “recombinant UMI read abundance (log10)” value rises from 0.0259 to 2.54.

Going from “AGATTATCATGGACCGGTTTTCCCGGTAATCCGTATTTGCA (site AGATTATCTTG)” to “AGATTCGCATGGACCGGTTTTCCCGGTAATCCGTATTTGGA (site AGATTCGCTTC)”, the “recombinant UMI read abundance (log10)” value falls from 2.9 to 1.89.

Going from “AGATTTACATGGACCGGTTTTCCCGGTAATCCGTATTTGGA (site AGATTTACTTC)” to “AGCAAAACATGGACCGGTTTTCCCGGTAATCCGTATTTGCA (site AGCAAAACTTG)”, the “recombinant UMI read abundance (log10)” value falls from 0.959 to 0.735.

First: AGCAAGGCATGGACCGGTTTTCCCGGTAATCCGTATTTGCA (site AGCAAGGCTTG)
Second: AGCAAGGCATGGACCGGTTTTCCCGGTAATCCGTATTTGCA (site AGGAAGACTTG)
The “recombinant UMI read abundance (log10)” value of the first is higher: 2.5 for the first, 0.0151 for the second.

Going from “AGCACAGCATGGACCGGTTTTCCCGGTAATCCGTATTTGAC (site AGCACAGCTGT)” to “AGCACAGCATGGACCGGTTTTCCCGGTAATCCGTATTTGGG (site AGCACAGCTCC)”, the “recombinant UMI read abundance (log10)” value falls from 2.8 to 0.0126.

“AGCACAGCATGGACCGGTTTTCCCGGTAATCCGTATTTGGG (site AGCCCAGCTCC)” and “AGCACAGCATGGACCGGTTTTCCCGGTAATCCGTATTTGGG (site AGCGCAGCTCC)” are within 0.2 log units of each other in “recombinant UMI read abundance (log10)” value: 0.00716 for the first, 0.0219 for the second.

“AGCACAGCATGGACCGGTTTTCCCGGTAATCCGTATTTGGG (site AGCTCAGCTCC)” and “AGCACCGCATGGACCGGTTTTCCCGGTAATCCGTATTTGGG (site AGCACCGCTCC)” are within 0.2 log units of each other in “recombinant UMI read abundance (log10)” value: 0 for the first, 0.0364 for the second.

Going from “AGCACGACATGGACCGGTTTTCCCGGTAATCCGTATTTGCA (site AGCACGACTTG)” to “AGCACGACATGGACCGGTTTTCCCGGTAATCCGTATTTGCA (site AGGAAGACTTG)”, the “recombinant UMI read abundance (log10)” value falls from 2.02 to 0.

With “AGCCAAACATGGACCGGTTTTCCCGGTAATCCGTATTTGAA (site AGCCAAACTTT)” the “recombinant UMI read abundance (log10)” value was 1.32.
